Measurements: patent publication US7781483B2, “Benzopyran compound” (Nissan Chemical Industries, Ltd., priority 2004, dated 2010)
Structures can show the parent of a compound that is named as a salt.

Test system: Atrium
Assay: Effects on the effective refractory period (S1-S2 extrastimulus technique, anesthetized beagles under vagal nerve stimulation)
Format: in vivo
Conditions: 0.3 mg/kg intravenously, determined from 5 min after administration, bilateral vagal nerve stimulation, basic cycle length 300 msec, [after]-[before] drug administration
Experimental: Beagles were anesthetized with pentobarbital sodium and thoracotomy was done along the median line under a respirator and the incision was made on the pericardium to expose the heart. An electrocardiogram (ECG) was recorded using bipolar electrodes attached to the surface of the right atrial free wall, right atrial auricle, and right ventricular free wall. The vagal nerves were stimulated using an electrostimulation device with Nichrome wires inserted into the vagal nerves in the neck bilaterally. The conditions for electrostimulation to the vagal nerves were set such that the RR intervals on ECG were prolonged by about 100 msec compared with those before the stimulation was started.
Atrial and ventricular effective refractory periods were determined by S1-S2 extrastimulus technique at basic cycle length of 300 msec during bilateral vagal nerve stimulation, using programmable electric stimulator. A train of 10 basic stimuli (S1) was followed by a premature extrastimulus (S2) at 2 times diastolic threshold.
For evaluation of drug effects, the atrial and ventricular effective refractory periods were determined before drug administration, then respective compound was administrated intravenously at the dose of 0.3 mg/kg, and the atrial and ventricular effective refractory periods were determined from 5 min after the administration.
The results were shown as the prolongation time on the atrial and ventricular effective refractory periods, i.e. [effective refractory period after drug administration]−[effective refractory period before drug administration] (msec).

SMILES	Prolongation time on the effective refractory period (msec) Atrium
CN(c1ccc2c(c1)OC(C)(C)[C@H](O)[C@H]2NCCc1ccccc1)S(C)(=O)=O (relative stereo) [Synthesis Example 12, N-{(3R*,4S*)-3-hydroxy-2,2-dimethyl-4-[(2-phenylethyl)amino]-3,4-dihydro-2H-benzopyran-7-yl}-N-methylmethanesulfonamide hydrochloride]	28 ms
CC1(C)Oc2cc(NS(C)(=O)=O)ccc2[C@H](NCCc2ccccc2)[C@H]1O (relative stereo) [Synthesis Example 7, N-{(3R*,4S*)-3-Hydroxy-2,2-dimethyl-4-[(2-phenylethyl)amino]-3,4-dihydro-2H-1-benzopyran-7-yl}methanesulfonamide maleate]	32 ms
COc1cc2c(cc1N(C)S(C)(=O)=O)OC(C)(C)[C@H](O)[C@H]2NCCc1ccccc1 (relative stereo) [Synthesis Example 3, N-{(3R*,4S*)-3-Hydroxy-6-methoxy-2,2-dimethyl-4-[(2-phenylethyl)amino]-3,4-dihydro-2H-1-benzopyran-7-yl}-N-methylmethanesulfonamide]	20 ms
COc1cc2c(cc1NS(C)(=O)=O)OC(C)(C)[C@H](O)[C@H]2NCCc1ccccc1 (relative stereo) [Synthesis Example 1, N-{(3R*,4S*)-3-Hydroxy-6-methoxy-2,2-dimethyl-4-[(2-phenylethyl)amino]-3,4-dihydro-2H-1-benzopyran-7-yl}methanesulfonamide]	24 ms
COc1cc2c(cc1NS(C)(=O)=O)OC(C)(C)[C@H](O)[C@H]2NCCC1CCCCC1 (relative stereo) [Synthesis Example 4, N-{(3R*,4S*)-4-[(2-Cyclohexylethyl)amino]-3-hydroxy-6-methoxy-2,2-dimethyl-3,4-dihydro-2H-1-benzopyran-7-yl}methanesulfonamide]	26 ms
Br.CC1(C)Oc2cc(NS(C)(=O)=O)c(O)cc2[C@H](NCCc2ccccc2)[C@H]1O (relative stereo) [Synthesis Example 2, N-{(3R*,4S*)-3,6-Dihydroxy-2,2-dimethyl-4-[(2-phenylethyl)amino]-3,4-dihydro-2H-1-benzopyran-7-yl}methanesulfonamide]	26 ms
